Biological target: T1, gastrin receptor (Rattus norvegicus, UniProt P30553)
T1 construct: The stomach was excised and flushed with ca. 1 ml of unbuffered physiological saline solution; from tissue; host or cells: isolated whole stomach of immature rats (ca. 21 days old)
T1 sequence (P30553 1-452): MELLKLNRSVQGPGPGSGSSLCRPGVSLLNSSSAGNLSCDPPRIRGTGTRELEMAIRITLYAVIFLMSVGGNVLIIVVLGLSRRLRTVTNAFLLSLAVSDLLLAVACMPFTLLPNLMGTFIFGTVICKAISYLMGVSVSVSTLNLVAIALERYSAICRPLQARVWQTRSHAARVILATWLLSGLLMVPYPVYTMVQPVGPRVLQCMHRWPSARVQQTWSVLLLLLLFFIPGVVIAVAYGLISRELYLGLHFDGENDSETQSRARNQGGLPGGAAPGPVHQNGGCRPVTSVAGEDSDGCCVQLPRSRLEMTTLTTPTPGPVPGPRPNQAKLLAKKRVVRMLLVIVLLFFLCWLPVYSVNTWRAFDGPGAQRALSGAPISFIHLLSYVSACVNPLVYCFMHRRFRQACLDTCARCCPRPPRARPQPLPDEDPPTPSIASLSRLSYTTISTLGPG
Assay: gastrin antagonist activity in immature rat stomach assay (pentagastrin dose-response, acid secretion)
Conditions: isolated immature rat stomach, cumulative pentagastrin dose-response curves; for Kb: read-out: Gastrin pKb (converted)
Method: The compounds of the examples were also tested for gastrin antagonist activity in an immature rat stomach assay. The procedure was as follows:
The oesophagus of immature rats (33-50 g, ca. 21 days old) was ligated at the level of the cardiac sphincter and the duodenal sphincter was cannulated. The stomach was excised and flushed with ca. 1 ml of unbuffered physiological saline solution. The fundus was punctured and cannulated. A further 4-5 ml of unbuffered solution was flushed through the stomach to ensure the preparation was not leaking. The stomach was lowered into a jacketed organ bath containing 40 ml of buffered solution containing 3×10^−8 M 5-methylfurmethide, maintained at 37° and gassed vigorously with 95% O2/5% CO2. The stomach was continuously perfused at a rate of 1 ml min^−1 with unbuffered solution gassed with 100% O2 with the perfusate passing over an internally referenced pH-electrode fixed 12 cm above the stomach.
After 120 min of stabilisation the drugs were added directly to the serosal solution in the organ bath and after a further 60 min cumulative pentagastrin dose-response curves were started. Changes in acid secretion were monitored and the curves analysed according to Black et al., Br. J. Pharmacol., 1985, 86, 581.

Structure (SMILES) | Kb | Gastrin pKb
Cc1ccc(NC(=O)c2nc(C3C4CCC3CC4)[nH]c2COC23CC4CC(CC(C4)C2)C3)cc1C(=O)O (stereo not drawn) [Example 293, 5-{[5-(Adamantan-1-yloxymethyl)-2-bicyclo[2.2.1]hept-7-yl-1H-imidazole-4-carbonyl]-amino}-2-methyl-benzoic Acid] | 3.02 nM | 
O=C(O)c1cccc(NC(=O)c2nc(C3CCCCCC3)[nH]c2COC23CC4CC(CC(C4)C2)C3)c1 [Example 228, 3-{[5-(Adamantan-1-yloxymethyl)-2-cycloheptyl-1H-imidazole-4-carbonyl]-amino}-benzoic Acid] | 0.724 nM | 
C[C@@H](NC(=O)c1cccc(NC(=O)c2nc(C3CCCCC3)[nH]c2CCC23CC4CC(CC(C4)C2)C3)c1)C(=O)O [Example 273, (R)-2-(3-{[5-(2-Adamantan-1-yl-ethyl)-2-cyclohexyl-1H-imidazole-4-carbonyl]-amino}-benzoylamino)-propionic Acid] | 49 nM | 
N#Cc1ccccc1-c1nc(C(=O)Nc2cccc(C(=O)O)c2)c(COC23CC4CC(CC(C4)C2)C3)[nH]1 [Example 306, 3-{[5-(Adamantan-1-yloxymethyl)-2-(2-cyano-phenyl)-1H-imidazole-4-carbonyl]-amino}-benzoic Acid] | 58.9 nM | 
O=C(NO)c1cccc(NC(=O)c2nc(C3CCCCC3)[nH]c2COC23CC4CC(CC(C4)C2)C3)c1 [Example 286, 5-(Adamantan-1-yloxymethyl)-2-cyclohexyl-1H-imidazole-4-carboxylic Acid (3-hydroxycarbamoyl-phenyl)-amide] | 26.9 nM | 
O=C(O)c1cccc(NC(=O)c2nc(C3CCCCC3)[nH]c2COCC23CC4CC(CC(C4)C2)C3)c1 [Example 309, 3-{[5-(Adamantan-1-ylmethoxymethyl)-2-cyclohexyl-1H-imidazole-4-carbonyl]-amino}-benzoic Acid] | 24.5 nM | 
Cc1ccc(NC(=O)c2nc(C3CCCCC3)[nH]c2CCC23CC4CC(CC(C4)C2)C3)cc1C(=O)O [Example 107] |  | 7.65
O=C(O)c1cccc(NC(=O)c2[nH]c(C34CCC(CC3)CC4)nc2CCC23CC4CC(CC(C4)C2)C3)c1 [Example 212, 3-{[5-(2-Adamantan-1-yl-ethyl)-2-bicyclo[2.2.2]oct-1-yl-1H-imidazole-4-carbonyl]-amino}-benzoic Acid] | 2.45 nM | 
CN1CCCCC1c1nc(C(=O)Nc2cccc(C(=O)O)c2)c(CCC23CC4CC(CC(C4)C2)C3)[nH]1 (racemic) [Example 139, (±)-3-{[5-(2-Adamantan-1-yl-ethyl)-2-(1-methyl-piperidin-2-yl)-1H-imidazole-4-carbonyl]-amino}-benzoic Acid] | 15.8 nM | 
O=C(O)c1cccc(OC(=O)c2nc(C3CCCCC3)[nH]c2CCC23CC4CC(CC(C4)C2)C3)c1 [Example 282, 5-(2-Adamantan-1-yl-ethyl)-2-cyclohexyl-1H-imidazole-4-carboxylic Acid 3-carboxy-phenyl Ester] | 708 nM | 
O=C(O)CCc1c(F)ccc(NC(=O)c2nc(C3CCCCC3)[nH]c2CCC23CC4CC(CC(C4)C2)C3)c1F [Example 284, 3-(3-{[5-(2-Adamantan-1-yl-ethyl)-2-cyclohexyl-1H-imidazole-4-carbonyl]-amino}-2,6-difluoro-phenyl)-propionic Acid] | 97.7 nM | 
Cc1cc(C)c(-c2nc(C(=O)Nc3ccc(C)c(C(=O)O)c3)c(CCC34CC5CC(CC(C5)C3)C4)[nH]2)c(C)n1 [Example 183, 5-{[5-(2-Adamantan-1-yl-ethyl)-2-(2,4,6-trimethyl-pyridine-3-yl)-1H-imidazole-4-carbonyl]-amino}-2-methyl-benzoic Acid] | 42.7 nM | 
O=C(O)c1cccc(NC(=O)c2nc(C3CCCCC3)[nH]c2CCC23CCC(CC2)CC3)c1 [Example 175, 3-{[5-(2-Bicyclo[2.2.2]oct-1-yl-ethyl)-2-cyclohexyl-1H-imidazole-4-carbonyl]-amino}-benzoic Acid] | 2.95 nM | 
CC(C)(C(=O)O)c1cccc(NC(=O)c2nc(C3CCCCC3)[nH]c2CCC23CC4CC(CC(C4)C2)C3)c1 [Example 256, 2-(3-{[5-(2-Adamantan-1-yl-ethyl)-2-cyclohexyl-1H-imidazole-4-carbonyl]-amino}-phenyl)-2-methyl-propionic Acid] | 708 nM | 
O=C(O)c1cccc(NC(=O)c2nc([C@@H]3CC4C=C[C@@H]3C4)[nH]c2COC23CC4CC(CC(C4)C2)C3)c1 [Example 294, exo-3-([5-(Adamantan-1-yloxymethyl)-2-((1S,2R)-bicyclo[2.2.1]hept-5-en-2-yl)-1H-imidazole-4-carbonyl]-amino}-benzoic Acid] |  | 8.43
CCCCCC12CCC(c3nc(C(=O)Nc4cccc(C(=O)O)c4)c(COC45CC6CC(CC(C6)C4)C5)[nH]3)(CC1)CC2 [Example 302, 3-{[5-(Adamantan-1-yloxymethyl)-2-(4-pentyl-bicyclo[2.2.2]oct-1-yl)-1H-imidazole-4-carbonyl]-amino}-benzoic Acid] | 589 nM | 
Cc1c(NC(=O)c2nc(C3CCCCC3)[nH]c2COC23CC4CC(CC(C4)C2)C3)cccc1C(=O)O [Example 218, 3-{[5-(Adamantan-1-yloxymethyl)-2-cyclohexyl-1H-imidazole-4-carbonyl]-amino}-2-methyl-benzoic Acid] | 148 nM | 
O=C(O)c1cccc(NC(=O)c2nc(C3CCCCCCC3)[nH]c2COC23CC4CC(CC(C4)C2)C3)c1 [Example 297, 3-{[5-(Adamantan-1-yloxymethyl)-2-cyclooctyl-1H-imidazole-4-carbonyl]-amino}-benzoic Acid] | 0.851 nM | 
O=C(Cc1cccc(NC(=O)c2nc(C3CCCCC3)[nH]c2COC23CC4CC(CC(C4)C2)C3)c1)NO [Example 287, 5-(Adamantan-1-yloxymethyl)-2-cyclohexyl-1H-imidazole-4-carboxylic Acid (3-hydroxycarbamoylmethyl-phenyl)-amide] | 91.2 nM | 
Cc1ccccc1-c1nc(CCc2cccc(C(=O)O)c2)c(CCC23CC4CC(CC(C4)C2)C3)n1C [Example 278, 3-{2-[5-(2-Adamantan-1-yl-ethyl)-1-methyl-2-o-tolyl-1H-imidazol-4-yl]-ethyl}-benzoic Acid] | 64.6 nM | 
O=C(O)c1cccc(NC(=O)c2nc([C@@H]3CC4CC[C@@H]3C4)[nH]c2COC23CC4CC(CC(C4)C2)C3)c1 [Example 292, endo-3-{[5-(Adamantan-1-yloxymethyl)-2-((1R,2R)-bicyclo[2.2.1]hept-2-yl)-1H-imidazole-4-carbonyl]-amino}-benzoic Acid] |  | 8.57
O=C(O)CCc1cc(NC(=O)c2nc(C3CCCCC3)[nH]c2CCC23CC4CC(CC(C4)C2)C3)ccc1Cl [Example 271, 3-(5-{[5-(2-Adamantan-1-yl-ethyl)-2-cyclohexyl-1H-imidazole-4-carbonyl]-amino)-2-chloro-phenyl)-propionic Acid] | 355 nM | 
Cc1ccc(NC(=O)c2nc(C3CCCCCCC3)[nH]c2COC23CC4CC(CC(C4)C2)C3)cc1C(=O)O [Example 298, 5-{[5-(Adamantan-1-yloxymethyl)-2-cyclooctyl-1H-imidazole-4-carbonyl]-amino}-2-methyl-benzoic Acid] | 1.95 nM | 
O=C(O)c1cccc(NC(=O)c2c(COC34CC5CC(CC(C5)C3)C4)nc(C3CCCCC3)n2O)c1 [Example 308, 3-{[5-(Adamantan-1-yloxymethyl)-2-cyclohexyl-3-hydroxy-3H-imidazole-4-carbonyl]-amino}-benzoic Acid] | 18.6 nM | 
